From article PMC7719179, “Small molecule inhibition of Dynamin-dependent endocytosis targets multiple niche signals and impairs leukemia stem cells” (Nature Communications, 2020)
“And” between values parts separate entries of the source, which are not always exact repeats. Equal values may be shown once. Read-outs that look alike come from different tables or passages of the source.

What was measured:
[1] = system: normal murine hematopoietic stem and progenitor cells (HSPCs)
Procedure: Bone marrow cells collected from 2-month-old WT mice or CD34-positive (CD34+) stem and progenitor bone marrow cells from healthy donors were seeded at a density of 5 × 10^4 cells per 35 mm dish in semi-solid agar for GM colony growth, as previously described[92]. Cultures were incubated at 37 °C in 10% CO2 for 10 days in presence of 10 μg/mL rhIL-3 (#200-03, Pepro Tech), 25 μg/mL rhSCF (#300-07, Pepro Tech), 25 μg/mL rhFLT3-L (#300-19, Pepro Tech), rhIL-6 (#200-06, Pepro Tech), 500 nM StemRegenin 1 (SR1; #1227633-49-9, Stem Cell Technologies) and 35 nM UM-171 (#72914, Stem Cell Technologies)[93],[94], then stained with acetyl-cholinesterase and counted for the number of colonies.

[2] = system: ETP12 and ALL8 patient-derived xenografts; experiment: Xenograft models of human T-ALL (ETP12, ALL8): leukemic burden in blood, bone marrow, spleen; spleen weight; type: in vivo
Procedure: Patient-derived xenograft models were established as previously described[97],[98]. All experiments were pre-approved by the Human Research Ethics Committee of the University of New South Wales (UNSW), the UNSW Animal Care and Ethics Committee, the Alfred Health Human Ethics Committee and the AMREP Animal Ethics Committee. For transplantation assays, 10^6 splenocytes harvested from successfully engrafted primary human ETP-ALL or T-ALL xenografts were injected into nonobese diabetic/severe combined immunodeficient (NOD.Cg-Prkdc^scid, also termed NOD/SCID) or NOD/SCID/Il2rg^tm1wjl/SzJ (NSG) mice[99]. Moreover, 1.5 × 10^6 cells splenocytes harvested from successfully engrafted patient-derived AML xenografts were injected into nonobese diabetic/severe immunodeficient (NOD.Cg-Rag1^tm1MomIl2rg^tm1wjl/SzJ, also termed NRG) mice expressing human IL-3, human GM-CSF and human SCF from the SGM3 triple transgene (NRGS)[100]. Engraftment into recipients was monitored by FACS analysis of peripheral blood as previously described. […] Both males and females were used. […] Kaplan–Meier survival and statistical analyses were performed using GraphPad Prism. 6.0 software (GraphPad Software, Inc.).
Spleen and sternum from recipients were collected, incubated at least 24 h in 3.7% neutral buffered formalin (pH 7.4), embedded in paraffin and sectioned at 8 μm onto Superforst-Plus slides. Samples were incubated with an anti-human CD45 antibody (Dako, #M0701) in Dako Autostainer Plus solution, then incubated with a sheep anti-mouse IgG conjugated to HRP and processed as per standard protocols using 3,3’ Diaminobenzidine staining (#ab64238, Abcam) for all immunoblots, as previously described. Samples were imaged and annotated using an Aperio ScanScope and software system (Leica Biosystems). […]
(blue circles) and ALL8 (red open circles) 24 hours after the last dose of drugs was administered.
therapy. Median is indicated (bar) with Mean ± SEM indicated for ETP12 and ALL8, 2-way ANOVA
period of administration is indicated in light grey.

[3] = system: patient-derived ETP-ALL and T-ALL xenografts; experiment: Relative viability and LC50 on patient-derived ETP-ALL and T-ALL xenografts, 48 h; type: cell-based, human; design: Relative % viable cells: unit of the concentration uncertain; conditions: for CC50: Homo sapiens, read-out: LC50 Dynole 34-2
From the text: patient-derived (a ) ETP- ALL1 and (b) T-ALL 2 xenografts treated with increasing concentration of […]
Viability was normalized to vehicle-treated cells with experiments performed in duplicates. Human CD34-positive (CD34+) hematopoietic stem and progenitors from healthy donors (N=3) were used as controls. […]

[4] = system: hematopoietic stem cells; experiment: Competitive transplant with bone marrow cells from treated WT mice (HSC activity); type: in vivo
Procedure: induction-like therapy (VXL) or combination therapy was administered. Mean ± SEM, 2-way ANOVA […]
murine B (CD19+ B220+), T (CD3+) and Myeloid (Gr-1 + CD11b+ granulocytes and monocytes) cells (c ), as well as Lineage-negative Kit-positive (Lin -Kit+, LK) progenitors, different populations of multipotent progenitors (MPP) and hematopoietic stem cells (HSC; d) from the bone marrow of WT […]
administered. Vehicle was used as control. e, Experimental schematic of competitive transplant […]
harvested from isogenic Cd45.1+ mice. These cells were injected into lethally -irradiated recipients, and lineage reconstitution was monitored every 4 weeks, until 20 weeks post-transplantation when BM was harvested for analysis. f, Percent of donor -derived (Cd45.2 +) cells among all peripheral blood cells at 4, 8, 12, 16 and 20 weeks post- transplant. g-h , Absolute numbers of donor-derived (Cd45.2+) lineage-committed (B, and Myeloid) cells ( g), as well as LK, MPP populations and HSCs (h ) harvested from the BM of recipients at 20 weeks post- transplant. Mean ± SEM, 2-way ANOV A with Tukey’s correction test; *P<0.05, *** P<0.001 compared to vehicle; #P<0.05, ##P<0.01, ###P<0.001 compared to VXL. ns = not statistically significant.

## N#CC[C@H](C1CCCC1)n1cc(-c2ncnc3[nH]ccc23)cn1 [Ruxolitinib]
[1]
  growth of normal hematopoietic stem and progenitor cells (HSPCs), clonogenic assay: significantly impaired

## CCCCCCCCNC(=O)C(C#N)=Cc1cn(CCCN(C)C)c2ccccc12 [Dynole 34-2, 2-Cyano-N-octyl-3-(1-(3-dimethylaminopropyl)-1H-indol-3-yl)-acrylamide]
[2]; ALL8, BM
  Absolute numbers human CD45+ cells: 6540000 and 4120000 and 6090000
[2]; ALL8, Time (weeks) 1
  Proportion of hCD45+ (%) in peripheral blood: 1.0%
[2]; ALL8, Time (weeks) 5
  Proportion of hCD45+ (%) in peripheral blood: 2.0%
[2]; ALL8, Time (weeks) 6
  Proportion of hCD45+ (%) in peripheral blood: 64.0%
[2]; ETP12, BM
  Absolute numbers human CD45+ cells: 4510000 and 5170000 and 3540000
[2]; ETP12, Time (weeks) 1
  Proportion of hCD45+ (%) in peripheral blood: 0.1% and 0.0% and 0.2%
[2]; ETP12, Time (weeks) 2
  Proportion of hCD45+ (%) in peripheral blood: 0.2% and 0.1% and 0.3% and 0.0%
[2]; ETP12, Time (weeks) 3
  Proportion of hCD45+ (%) in peripheral blood: 2.8% and 0.4% and 7.0% and 8.6% and 4.0% and 0.0% and 0.2%
[2]; ETP12, Time (weeks) 7
  Proportion of hCD45+ (%) in peripheral blood: 35.2%
[2]; ETP12 and ALL8 recipients, 24 h after last administration, in words
  patient-derived leukemic cells in bone marrow and spleen, Dynole 34-2 combined with chemotherapy compared with chemotherapy alone: at least tenfold less
[2]; ETP12 and ALL8 xenografts, result in words
  leukemic cells in the peripheral blood, bone marrow and spleen, single agent: significant reduction in leukemic cells
[2]; PDX ALL8
  Spleen weight: 0.116 g and 0.076 g and 0.075 g
[2]; PDX ETP12
  Spleen weight: 0.157 g and 0.109 g and 0.091 g
[3]; ALL8, dose 0.04 (unit uncertain)
  Relative % viable cells: 90.4% and 94.4%
[3]; ALL8, dose 0.2 (unit uncertain)
  Relative % viable cells: 80.81% and 92.6%
[3]; ALL8, dose 1 (unit uncertain)
  Relative % viable cells: 72.11% and 72.9% and 110.2%
[3]; ALL8, dose 5 (unit uncertain)
  Relative % viable cells: 59.7% and 59.2%
[3]; ALL8, dose 125 (unit uncertain)
  Relative % viable cells: 1.3% and 3.1% and 2.3%
[3]; ALL29, dose 0.04 (unit uncertain)
  Relative % viable cells: 101.7% and 96.7%
[3]; ALL29, dose 0.2 (unit uncertain)
  Relative % viable cells: 96.7% and 101.5%
[3]; ALL29, dose 5 (unit uncertain)
  Relative % viable cells: 40.7% and 42.8%
[3]; ALL29, dose 125 (unit uncertain)
  Relative % viable cells: 9.1% and 6.3% and 3%
[3]; ALL33, dose 0.04 (unit uncertain)
  Relative % viable cells: 93.7% and 90.9%
[3]; ALL33, dose 0.2 (unit uncertain)
  Relative % viable cells: 85.9%
[3]; ALL33, dose 5 (unit uncertain)
  Relative % viable cells: 38.4% and 45.6%
[3]; ALL33, dose 25 (unit uncertain)
  Relative % viable cells: 25.8% and 17.5%
[3]; ALL33, dose 125 (unit uncertain)
  Relative % viable cells: 0%
[3]; ETP1, dose 0.04 (unit uncertain)
  Relative % viable cells: 101.2%
[3]; ETP1, dose 0.2 (unit uncertain)
  Relative % viable cells: 100.4% and 100%
[3]; ETP1, dose 1 (unit uncertain)
  Relative % viable cells: 99.9% and 99.8%
[3]; ETP1, dose 5 (unit uncertain)
  Relative % viable cells: 98.2%
[3]; ETP1, dose 25 (unit uncertain)
  Relative % viable cells: 36.3% and 35.6%
[3]; ETP1, dose 125 (unit uncertain)
  Relative % viable cells: 7% and 0%
[3]; ETP5, dose 0.04 (unit uncertain)
  Relative % viable cells: 102.7%
[3]; ETP5, dose 0.2 (unit uncertain)
  Relative % viable cells: 95.7% and 97.2%
[3]; ETP5, dose 1 (unit uncertain)
  Relative % viable cells: 97.7%
[3]; ETP5, dose 5 (unit uncertain)
  Relative % viable cells: 90.9% and 92.8%
[3]; ETP5, dose 25 (unit uncertain)
  Relative % viable cells: 25.9% and 13.9%
[3]; ETP5, dose 125 (unit uncertain)
  Relative % viable cells: 2.9% and 6.9% and 3.5%
[3]; ETP12, dose 0.04 (unit uncertain)
  Relative % viable cells: 107.6% and 104.3%
[3]; ETP12, dose 0.2 (unit uncertain)
  Relative % viable cells: 95.8% and 90.7%
[3]; ETP12, dose 5 (unit uncertain)
  Relative % viable cells: 77.5%
[3]; ETP12, dose 25 (unit uncertain)
  Relative % viable cells: 2.7% and 1.6% and 1.1%
[3]; ETP12, dose 125 (unit uncertain)
  Relative % viable cells: 2.6% and 7.9% and 2%
[3]; ETP13, dose 0.04 (unit uncertain)
  Relative % viable cells: 91.2% and 89.4%
[3]; ETP13, dose 0.2 (unit uncertain)
  Relative % viable cells: 91.8% and 87.5%
[3]; ETP13, dose 1 (unit uncertain)
  Relative % viable cells: 90.4% and 102.1%
[3]; ETP13, dose 5 (unit uncertain)
  Relative % viable cells: 60.7% and 66.4% and 84.4%
[3]; ETP13, dose 25 (unit uncertain)
  Relative % viable cells: 4.2% and 3.5%
[3]; ETP13, dose 125 (unit uncertain)
  Relative % viable cells: 1.5% and 2.3% and 0.7%
[3]; ETP14, dose 0.04 (unit uncertain)
  Relative % viable cells: 74% and 80.7% and 108.4%
[3]; ETP14, dose 0.2 (unit uncertain)
  Relative % viable cells: 80.8% and 85.9%
[3]; ETP14, dose 1 (unit uncertain)
  Relative % viable cells: 56.6% and 73.2% and 82.4%
[3]; ETP14, dose 5 (unit uncertain)
  Relative % viable cells: 58.1% and 85.7% and 56%
[3]; ETP14, dose 25 (unit uncertain)
  Relative % viable cells: 10.8% and 11.5%
[3]; ALL8, Relapse, Mature
  CC50: 5.76 µM
[3]; ALL29, Diagnosis, Mature
  CC50: 4.51 µM
[3]; ALL33, Diagnosis, Mature
  CC50: 2.43 µM
[3]; ETP1, Diagnosis, ETP
  CC50: 19.9 µM
[3]; ETP5, Diagnosis, ETP
  CC50: 49.9 µM
[3]; ETP12, Diagnosis, ETP
  CC50: 4.26 µM
[3]; ETP13, Diagnosis, ETP
  CC50: 7.05 µM
[3]; ETP14, Diagnosis, ETP
  CC50: 5.25 µM
[4]; Supplementary Figure 5g-h
  Absolute numbers of Cd45.2+ cells in the bone marrow: B cells: 3150000 and 4270000 and 3310000 and 4360000
  Absolute numbers of Cd45.2+ cells in the bone marrow: LK: 231000 and 185000 and 205000 and 163000 and 160000
  Absolute numbers of Cd45.2+ cells in the bone marrow: Myeloid cells: 955000 and 1600000 and 1200000 and 1410000 and 1720000
  Absolute numbers of Cd45.2+ cells in the bone marrow: T cells: 471000 and 332000 and 364000 and 374000 and 460000
[4]; competitive transplant of bone marrow from treated mice, result in words
  effect on HSC fitness and differentiation potential: no detrimental effect on HSC fitness and differentiation potential
[4]; week 4
  Proportion of CD45.2+ (%) in peripheral blood: 40.53% and 37.56% and 37.9% and 34.3% and 35.3%
[4]; week 8
  Proportion of CD45.2+ (%) in peripheral blood: 36.97% and 46.65% and 45.78% and 44.9% and 43.63%
[4]; week 12
  Proportion of CD45.2+ (%) in peripheral blood: 46.54% and 48.81% and 42.82% and 42.23% and 46.32%
[4]; week 16
  Proportion of CD45.2+ (%) in peripheral blood: 42.09% and 57% and 54.04% and 43.93% and 53.26%
[4]; week 20
  Proportion of CD45.2+ (%) in peripheral blood: 50.7% and 47.2% and 59.8% and 59.3% and 53.24%
